The text below walks through data of patent US20160375006A1, “USES OF PARALOG-SELECTIVE INHIBITORS OF GSK3 KINASES” (priority 2012, published 2016).

Experiment [1] deals with T1, GSK3β (Homo sapiens, UniProt P49841). The conditions noted are these: GSK3β over GSK3α.
Experimental: (§1) Reactions were terminated by the addition of 10 mM EDTA. Substrate and product were separated electrophoretically and fluorescence intensity of the substrate and product was determined by Labchip EZ Reader II (Caliper Life Sciences, MA). The kinase activity was measured as percent conversion. The reactions were performed in duplicate for each sample. […] The results were analyzed by Genedata Assay Analyzer. The percent inhibition was plotted against the compound concentration and the IC50 value was determined from the logistic dose-response curve fitting.
The target of experiment [2] is T1, GSK3β. The experiment is described as follows: biochemical.
Experimental: as §1
In experiment [3] the target is GSK3α (Homo sapiens, UniProt P49840). The experiment is described as follows: biochemical.

Read-outs that look alike come from different tables or passages of the source.

T1 sequence (P49841 whole entry): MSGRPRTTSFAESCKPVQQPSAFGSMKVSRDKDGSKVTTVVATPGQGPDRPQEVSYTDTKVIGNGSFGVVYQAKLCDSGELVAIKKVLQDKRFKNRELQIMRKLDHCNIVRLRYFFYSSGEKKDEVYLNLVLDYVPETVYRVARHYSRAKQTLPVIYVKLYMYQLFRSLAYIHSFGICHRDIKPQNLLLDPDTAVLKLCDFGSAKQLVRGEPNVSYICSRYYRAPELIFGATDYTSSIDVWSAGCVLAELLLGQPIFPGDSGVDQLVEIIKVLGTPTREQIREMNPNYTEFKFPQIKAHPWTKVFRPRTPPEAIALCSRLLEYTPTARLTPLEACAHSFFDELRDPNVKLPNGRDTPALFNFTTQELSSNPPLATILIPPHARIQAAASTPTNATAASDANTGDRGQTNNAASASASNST
Chain of GSK3α (P49840 whole entry): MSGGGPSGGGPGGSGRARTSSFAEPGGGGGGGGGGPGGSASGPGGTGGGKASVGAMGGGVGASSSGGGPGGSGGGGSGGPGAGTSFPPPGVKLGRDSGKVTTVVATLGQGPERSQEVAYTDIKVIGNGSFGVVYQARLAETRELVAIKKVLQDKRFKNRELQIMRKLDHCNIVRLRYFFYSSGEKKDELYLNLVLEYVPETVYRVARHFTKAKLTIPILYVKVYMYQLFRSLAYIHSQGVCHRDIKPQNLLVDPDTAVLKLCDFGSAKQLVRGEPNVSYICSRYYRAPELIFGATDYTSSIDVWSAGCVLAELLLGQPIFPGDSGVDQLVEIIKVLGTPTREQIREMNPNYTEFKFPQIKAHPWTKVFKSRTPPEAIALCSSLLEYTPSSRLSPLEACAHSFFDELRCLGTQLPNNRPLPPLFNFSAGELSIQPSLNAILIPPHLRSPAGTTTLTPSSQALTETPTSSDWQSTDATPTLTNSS

`CC1(C)CC(=O)C2=C(C1)Nc1n[nH]c(C(F)(F)F)c1C2(C)c1ccccc1` (racemic) [Compound 71, 4,7,7-trimethyl-4-phenyl-3-(trifluoromethyl)-6,7,8,9-tetrahydro-2H-pyrazolo[3,4-b]quinolin-5(4H)-one] registered a GSK3β fold selectivity in experiment [1] of 1.5 fold.
As usually defined, the IC50 is the midpoint of a concentration-inhibition curve. `CCC1(c2ccccc2)C2=C(CC(C)(C)CC2=O)Nc2n[nH]cc21` (racemic) [Compound 211]: in experiment [2], the IC50 came out at 586 nM.
Take `CC1(C)CC(=O)C2=C(C1)Nc1n[nH]c(C3CC(F)(F)C3)c1C2(C)c1cccc(C(F)(F)F)c1` (racemic) [Compound 309]: the GSK3β fold selectivity in experiment [1] (Caliper assay) was 1.6 fold.
Turning to `CC[C@@]1(c2ccccc2)C2=C(CC(C)(C)CC2=O)Nc2n[nH]cc21` (stereo in doubt) [Compound 212], inhibition in experiment [2] was half-maximal at 507 nM (IC50).
For `CC[C@]1(c2ccccc2)C2=C(CC(C)(C)CC2=O)Nc2n[nH]cc21` (stereo in doubt) [Compound 213], the IC50 in experiment [2] was greater than 33000 nM.
`CC[C@]1(c2cc(F)cc(F)c2)C2=C(CC(C)(C)CC2=O)Nc2n[nH]cc21` (stereo in doubt) [Compound 217]: the IC50 in experiment [3] and in experiment [2] was greater than 33000 nM each time.
For the compound `CCC[C@]1(c2ccccc2)C2=C(CC(C)(C)CC2=O)Nc2n[nH]cc21` (stereo in doubt) [Compound 230], the IC50 in experiment [3] and in experiment [2] was greater than 33000 nM each time.
Take `CC[C@]1(c2ccccc2)C2=C(CC3(CCCCC3)CC2=O)Nc2n[nH]cc21` (stereo in doubt) [Compound 235]: the IC50 in experiment [3] and in experiment [2] was greater than 33000 nM in each case.
As to `CC1(C)CC(=O)C2=C(C1)Nc1n[nH]c(Cc3ccccc3)c1[C@@]2(C)c1ccccc1` (stereo in doubt) [Compound 328], the IC50 in experiment [3] and in experiment [2] was greater than 33000 nM throughout.
Take `CC1(C)CC(=O)C2=C(C1)Nc1n[nH]c(C(F)(F)F)c1C2c1cnccc1C(F)(F)F` (stereo not drawn) [Compound 66]: the IC50 in experiment [3] and in experiment [2] was 1000 to 5000 nM each time.
Regarding `CCC1(CC)CC(=O)C2=C(C1)Nc1n[nH]c(C)c1C2c1ccccc1` (stereo not drawn) [Compound 75], the IC50 in experiment [3] and in experiment [2] was 101 to 1000 nM each time.
`Cc1[nH]nc2c1C(c1ccccc1)C1=C(CC3(CC3)CC1=O)N2` (stereo not drawn) [Compound 77]: the IC50 in experiment [3] and in experiment [2] was 101 to 1000 nM in each case.
Turning to `Cc1[nH]nc2c1C(c1ccccc1)C1=C(CC3(CCC3)CC1=O)N2` (stereo not drawn) [Compound 78], the IC50 in experiment [3] and in experiment [2] was 101 to 1000 nM in each case.
In turn, `Cc1[nH]nc2c1C(c1ccccc1)C1=C(CC3(CCCC3)CC1=O)N2` (stereo not drawn) [Compound 79] showed an IC50 in experiment [2] of 101 to 1000 nM.
`CC(C)c1[nH]nc2c1[C@@H](c1ccccc1Cl)C1=C(CC(C)(C)CC1=O)N2` [Compound 314]: the IC50 in experiment [3] was found to be 79 nM; in experiment [2], 17 nM.
Take `CC(C)c1[nH]nc2c1[C@H](c1ccccc1Cl)C1=C(CC(C)(C)CC1=O)N2` [Compound 315]: the IC50 was 2960 nM in experiment [3] and 281 nM in experiment [2].
`Cc1ccccc1[C@H]1C2=C(CC(C)(C)CC2=O)Nc2n[nH]c(C(C)C)c21` [Compound 318]: the IC50 is 154 nM in experiment [3] and 36 nM in experiment [2].
`Cc1ccccc1[C@@H]1C2=C(CC(C)(C)CC2=O)Nc2n[nH]c(C(C)C)c21` [Compound 319]: the IC50 is 3650 nM in experiment [3] and 307 nM in experiment [2].
For `CCc1ccccc1C1C2=C(CC(C)(C)CC2=O)Nc2n[nH]c(C(C)C)c21` (stereo not drawn) [Compound 320], in that order: 209 nM and 41 nM.
`CCc1ccccc1[C@H]1C2=C(CC(C)(C)CC2=O)Nc2n[nH]c(C(C)C)c21` [Compound 321]: the IC50 was determined as 92 nM in experiment [3] and 25 nM in experiment [2].
Regarding `CN(C)c1ccccc1C1C2=C(CC(C)(C)CC2=O)Nc2n[nH]c(C3CC(F)(F)C3)c21` (stereo not drawn) [Compound 325], the results for the IC50 in experiment [3] and in experiment [2] were 487 nM and 58 nM, respectively.
